The results in this text go back to patent EP4755881A1 (Wuhan Createrna Science and Technology Co., Ltd., priority 2023, dated 2025).

Structures are written as SMILES. pIC50: −log10 of the molar value.

Sequence of hLPAR1 (human lysophosphatidic acid receptor 1, Accession No.: NM_001401.4) (Q92633 whole entry): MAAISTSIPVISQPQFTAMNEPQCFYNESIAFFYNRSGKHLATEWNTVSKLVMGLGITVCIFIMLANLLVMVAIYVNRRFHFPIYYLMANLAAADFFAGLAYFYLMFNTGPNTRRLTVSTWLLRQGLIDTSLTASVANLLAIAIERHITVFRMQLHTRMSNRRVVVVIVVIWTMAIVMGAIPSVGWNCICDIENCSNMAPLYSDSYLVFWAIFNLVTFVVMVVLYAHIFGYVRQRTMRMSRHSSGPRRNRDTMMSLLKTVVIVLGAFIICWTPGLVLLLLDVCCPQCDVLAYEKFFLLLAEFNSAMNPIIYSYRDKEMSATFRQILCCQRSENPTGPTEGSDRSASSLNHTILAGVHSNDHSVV

The target in one experiment is hLPAR1 (human lysophosphatidic acid receptor 1, Accession No.: NM_001401.4) (Homo sapiens, UniProt Q92633). In words: cell-based. As to conditions: LPAR1 inhibitory activity IC50, Table 1; FLIPR method, CHO-K1 cells overexpressing hLPAR1. On the procedure:
The antagonist properties of the compounds in the present disclosure were determined using the FLIPR (Fluorometric Imaging Plate Reader) method in CHO-K1 cells (Chinese Hamster Ovary cells K1, ATCC) overexpressing hLPAR1 (human lysophosphatidic acid receptor 1, Accession No.: NM_001401.4).
CHO-K1 cells stably expressing hLPAR1 were placed in a cell culture incubator at 37°C with 5% CO2 and cultured in F-12 medium containing 10% FBS (fetal bovine serum, Gibco, 10099-141), 1% penicillin-streptomycin (Gibco, 15140-122), and 0.4 mg/mL Hygromycin B (Gibco, 10687010). 18-24 hours before the FLIPR experiment, the cells were seeded into a 96-well plate at a density of 250,000 cells/mL (25,000 cells/well) and incubated overnight in the cell culture incubator. On the day of the experiment, the medium was removed, and the cells were washed with FLIPR buffer (2.5 mM probenecid (Thermo, P36400), 1.3 mM CaCl2, 3.3 mM Na2CO3, 1 mM MgSO4, 20 mM HEPES (Invitrogen, 15630080), 1× HBSS (Invitrogen, 14065056), 0.1% BSA (BioSharp, 70080030)). 75 µL of […] Fluo-4 AM fluorescent dye (Thermo, F14202) was added to each well and incubated for 1.0 hour at 37°C for dye loading. The 96-well plate was then washed once with buffer, and 50 µL of buffer containing the test compound or vehicle was added to each well, followed by incubation at room temperature for 30 min. The cell plate was then placed into the FLIPR for baseline fluorescence measurement (excitation wavelength at 485 nm, emission wavelength at 525 to 535 nm). Subsequently, 50 µL/well of agonist (final concentration 1 µM oleoyl-L-α-lysophosphatidic acid sodium salt (Sigma, L7260)) or vehicle (ultrapure water) was added, and fluorescence values were measured at 1-second intervals for 2 min. Finally, the output fluorescence counts were analyzed using GraphPad Prism 9.0 software log(inhibitor) vs. response--Variable slope (four parameters) equation to calculate IC50 values.
Table 1: Inhibitory activity data of compounds against LPAR1
As a reminder, the pIC50 is −log10 of the IC50, conventionally taken in molar units. For the molecule `Cc1nc(-c2nnn(C)c2CNC(=O)OCc2cc(F)cnc2Cl)ccc1C#CC1(CC(=O)O)CC1` [compound 117], the negative-log IC50 (pIC50) was 7.10.
In the case of `Cc1nc(-c2nnn(C)c2NC(=O)O[C@H](C)CC(C)C)ccc1C#CC1(CC(=O)O)CC1` [compound 220], the negative-log IC50 (pIC50) was 7.81.
`Cc1nc(-c2nnn(C)c2NC(=O)O[C@H](C)C23CC(C2)C3)ccc1C#CC1(CC(=O)O)CC1` [260-B]: the negative-log IC50 (pIC50) is 7.76.

Still in this experiment, the particulars now being: Table 1; FLIPR method, CHO-K1 cells overexpressing hLPAR1; read-out: LPAR1 inhibitory activity IC50.
Turning to `Cc1nc(-c2nnn(C)c2COC(=O)N(C)CC2CCCC2)ccc1C#CC1(CC(=O)O)CC1` [compound 039, 2-(1-((6-(5-((((cyclopentylmethyl)(methyl)carbamoyl)oxy)methyl)-1-methyl-1H-1,2,3-triazol-4-yl)-2-methylpyridin-3-yl)ethynyl)cyclopropyl)acetic acid], the pIC50 was 8.38.
For the molecule `Cc1nc(-c2nnn(C)c2NC(=O)O[C@H](C)c2ccccc2F)ccc1C#CC1(CC(=O)O)CC1` [compound 014, (R)-2-(1-((6-(5-(((1-(2-fluorophenyl)ethoxy)carbonyl)amino)-1-methyl-1H-1,2,3-triazol-4-yl)-2-methylpyridin-3-yl)ethynyl)cyclopropyl)acetic acid], the pIC50 was 8.11.
Still for that read-out and setting: the figure for `Cc1nc(-c2nnn(C)c2NC(=O)O[C@H](C)CC2CC2)ccc1C#C[C@@H]1CC(F)(F)C[C@H]1C(=O)O` (mixture of isomers) [compound 205, trans-2-((6-(5-(((((R)-1-cyclopropylpropan-2-yl)oxy)carbonyl)amino)-1-methyl-1H-1,2,3-triazol-4-yl)-2-methylpyridin-3-yl)ethynyl)-4,4-difluorocyclopentane-1-carboxylic acid] is 8.51; for `Cc1nc(-c2nnn(C)c2NC(=O)OC(C)CC(C)(C)F)ccc1C#CC1CCC1C(=O)O` (single isomer, unassigned) [306-A] it is 7.30; for `Cc1nc(-c2nnn(C)c2COC(=O)N(C)CC2CCCC2(F)F)ccc1C#CC1(CC(=O)O)CC1` (centres unmarked) [compound 095] it is 7.40.
Same read-out and setting: with `CCC(F)(F)[C@@H](C)OC(=O)Nc1c(-c2ccc(C#CC3(CC(=O)O)CC3)c(Cl)n2)nnn1C` [compound 209, (R)-2-(1-((2-chloro-6-(5-((((3,3-difluoropentan-2-yl)oxy)carbonyl)amino)-1-methyl-1H-1,2,3-triazol-4-yl)pyridin-3-yl)ethynyl)cyclopropyl)acetic acid] the figure was 7.90; with `CCCc1ccnc(OCc2c(-c3ccc(C#CC4(CC(=O)O)CC4)c(C)n3)nnn2C)n1` [compound 217, 2-(1-((2-methyl-6-(1-methyl-5-(((4-propylpyrimidin-2-yl)oxy)methyl)-1H-1,2,3-triazol-4-yl)pyridin-3-yl)ethynyl)cyclopropyl)acetic acid], 7.58; with `Cc1nc(-c2nnn(C)c2NC(=O)OC(C)CC2CC2)ccc1C#CC1CCC1C(=O)O` (single isomer, unassigned) [248-B], 7.72.
On the same count and under the same terms, with `CCC(F)(F)CN(C)C(=O)OCc1c(-c2ccc(C#CC3(CC(=O)O)CC3)c(C)n2)nnn1C` [compound 082] the figure was 6.80; with `CCC[C@@H](C)OC(=O)Nc1c(C)noc1-c1ccc(C#C[C@@H]2CC[C@H]2C(=O)O)c(C)n1` [compound 339], 8.59.
In the case of `CCC(F)(F)[C@@H](C)OC(=O)Nc1c(-c2ccc(C#C[C@@H]3CCC[C@H]3C(=O)O)c(C)n2)nnn1C` (mixture of isomers) [219-A, trans-2-((6-(5-(((((R)-3,3-difluoropentan-2-yl)oxy)carbonyl)amino)-1-methyl-1H-1,2,3-triazol-4-yl)-2-methylpyridin-3-yl)ethynyl)cyclopentane-1-carboxylic acid], the negative-log IC50 (pIC50) was 8.48.
The same measure, in the same setting: the figure for `Cc1nc(-c2nnn(C)c2COC(=O)N(C)CC2CCC2)ccc1C#CC1CC(F)(F)CC1C(=O)O` (racemic) [compound 362] is 7.69; for `Cc1nc(-c2nnn(C)c2NC(=O)OC(C)C2CC(F)(F)C2)ccc1C#CC1(CC(=O)O)CC1` (centres unmarked) [compound 029, 2-(1-((6-(5-(((1-(3,3-difluorocyclobutyl)ethoxy)carbonyl)amino)-1-methyl-1H-1,2,3-triazol-4-yl)-2-methylpyridin-3-yl)ethynyl)cyclopropyl)acetic acid] it is 6.66.
Same read-out and setting: the figure for `Cc1noc(-c2ccc(C#C[C@@H]3CCC[C@H]3C(=O)O)cn2)c1NC(=O)O[C@H](C)CC(C)(F)F` [compound 344] is 6.98; for `Cc1noc(-c2ccc(C#CC3(CNS(=O)(=O)O)CC3)c(F)c2)c1NC(=O)O[C@H](C)c1ccccc1Cl` [compound 460] it is 7.93.
As to `CCC(F)(F)[C@@H](C)OC(=O)Nc1c(-c2ccc(C#CC3(CC(=O)O)CC3)c(C)n2)nnn1C` [207', (R)-2-(1-((6-(5-((((3,3-difluoropentan-2-yl)oxy)carbonyl)amino)-1-methyl-1H-1,2,3-triazol-4-yl)-2-methylpyridin-3-yl)ethynyl)cyclopropyl)acetic acid], the negative logarithm of the IC50 (pIC50) is 7.69.
With `Cc1nc(-c2cnn(C)c2NC(=O)O[C@H](C)c2ccccc2Cl)ccc1C#CC1(CC(=O)O)CC1` [compound 005, (R)-2-(1-((6-(5-(((1-(2-chlorophenyl)ethoxy)carbonyl)amino)-1-methyl-1H-pyrazol-4-yl)-2-methylpyridin-3-yl)ethynyl)cyclopropyl)acetic acid], the negative-log IC50 (pIC50) is 7.65.
Same read-out and setting: the figure for `Cc1nc(-c2nnn(C)c2NC(=O)O[C@H](C)c2ccccc2Cl)ccc1C#CC1(CC(=O)O)CC1` [compound 013, (R)-2-(1-((6-(5-(((1-(2-chlorophenyl)ethoxy)carbonyl)amino)-1-methyl-1H-1,2,3-triazol-4-yl)-2-methylpyridin-3-yl)ethynyl)cyclopropyl)acetic acid] is 8.59; for `Cc1nc(-c2nnn(C)c2NC(=O)O[C@H](C)c2ccccc2F)ccc1C#C[C@@H]1CCCC[C@H]1C(=O)O` (mixture of isomers) [028-B, trans-2-((6-(5-((((R)-1-(2-fluorophenyl)ethoxy)carbonyl)amino)-1-methyl-1H-1,2,3-triazol-4-yl)-2-methylpyridin-3-yl)ethynyl)cyclohexane-1-carboxylic acid] it is 7.22.
On the same count and under the same terms, the figure for `Cc1nc(-c2nnn(C)c2NC(=O)O[C@H](C)CC(C)(F)F)ccc1C#C[C@@H]1CC[C@H]1C(=O)O` (mixture of isomers) [213-A, trans-2-((6-(5-(((((R)-4,4-difluoropentan-2-yl)oxy)carbonyl)amino)-1-methyl-1H-1,2,3-triazol-4-yl)-2-methylpyridin-3-yl)ethynyl)cyclobutane-1-carboxylic acid] is 7.32; for `Cc1nc(-c2nnn(C)c2NC(=O)O[C@H](C)c2ccccc2)ccc1C#C[C@@H]1CCCC[C@H]1C(=O)O` (mixture of isomers) [027-A, trans-2-((2-methyl-6-(1-methyl-5-((((R)-1-phenylethoxy)carbonyl)amino)-1H-1,2,3-triazol-4-yl)pyridin-3-yl)ethynyl)cyclohexane-1-carboxylic acid] it is 8.59.
In the case of `Cc1nc(-c2nnn(C)c2COC(=O)N(C)CC2CCC(F)(F)C2)ccc1C#CC1(CC(=O)O)CC1` (centres unmarked) [compound 094], the pIC50 is 7.52.

The experiment is the same for the next values; noted with them: read-out: LPAR1 inhibitory activity IC50; Table 1; FLIPR method, CHO-K1 cells overexpressing hLPAR1.
With `Cc1nc(-c2nnn(C)c2NC(=O)OC(C)CCCF)ccc1C#CC1(CC(=O)O)CC1` (racemic) [compound 280], the pIC50 was 7.12.
